The results in this text go back to patent US9809623B2, “α4β7 peptide monomer and dimer antagonists” (Protagonist Therapeutics, Inc., priority 2014, dated 2017).

Assay [1] has as its system cell types in human whole blood. Put plainly: FACS binding specificity in human whole blood. It counts as cell-based. The following applies: 1 nM, 1 mM MnCl2. The protocol:
To further evaluate the selectivity of Peptide X in human blood, the fluorescent dye Alexa 647 was conjugated to Peptide X at the same position used for attaching biotin. […] Heparinized human whole blood was supplemented with 1 mM MnCl2, and stained with the Peptide X-Alexa 647 conjugate or biotinylated vedolizumab for 1 hour at room temperature. The samples were fixed (red blood cells lysed) and washed. The vedolizumab samples were stained separately with streptavidin Alexa 647 for stain for 30 minutes at room temperature. FACS analysis was used to assess binding of the peptide or vedolizumab to a broad panel of cell types including NK cells, basophils, monocytes, eosinophils, neutrophils, CD4 naïve T cells, CD4 memory T cells, CD8 naïve T cells, CD8 memory T cells, and B cells. […] The binding specificity for vedolizmab shown in Table 7 is also very similar to that reported in the literature (Soler et al, JPET 330:864-875, 2009).
A general note: In flow cytometry, cells or beads pass a laser one at a time.

A further assay deals with αEβ7 integrin. Kind of assay: FACS binding in cynomolgus monkey blood (α4β7 / αEβ7 expressing cells). It counts as cell-based. Particulars: cyno blood, 1 nM. The protocol: Blood from cynomolgus monkeys was also analyzed by FACS.
Binding to αEβ7 integrin in cyno blood was also tested. Cyno blood was incubated with 1 nM Peptide X-Alexa 647, and cells expressing α4β7 or αEβ7 were analyzed by FACS. […] Binding to α4β7 was specific, because it could be blocked in the presence of a large excess (1 uM) of unlabeled Peptide X. Therefore under these conditions, it was concluded that Peptide X binds α4β7, not αEβ7.

Take `CC(=O)N[C@@H]1C(=O)N(C)[C@@H](CCCNC(=N)N)C(=O)N[C@@H](CO)C(=O)N[C@@H](CC(=O)O)C(=O)N[C@@H]([C@@H](C)O)C(=O)N[C@@H](CC(C)C)C(=O)N[C@H](C(=O)N[C@@H](Cc2ccc(C(C)(C)C)cc2)C(=O)N[C@@H](CCC(=O)O)CC(=O)N[C@H](CCCCNC(=O)CN(CC(=O)NCCCC[C@@H](NC(=O)C[C@H](CCC(=O)O)NC(=O)[C@H](Cc2ccc(C(C)(C)C)cc2)NC(=O)[C@H]2NC(=O)[C@H](CC(C)C)NC(=O)[C@H]([C@@H](C)O)NC(=O)[C@H](CC(=O)O)NC(=O)[C@H](CO)NC(=O)[C@H](CCCNC(=N)N)N(C)C(=O)[C@@H](NC(C)=O)C(C)(C)SSC2(C)C)C(N)=O)C(=O)CCNC(=O)CCCCCC2(C)C(=CC=CC=CC3=[N+](CCCS(=O)(=O)[O-])c4ccc(S(=O)(=O)O)cc4C3(C)C)N(CCCS(=O)(=O)O)c3ccc(S(=O)(=O)O)cc32)C(N)=O)C(C)(C)SSC1(C)C` (single isomer, unassigned) [Peptide X-Alexa 647]: in assay [1], the “Percent positive staining, Basophils” value came out at 87%; the “Percent positive staining, CD4 memory T cells” value was determined as 20%; the “Percent positive staining, CD4 naïve T cells” value is listed as 51%; the “Percent positive staining, CD8 memory T cells” value is on record as 36%. Also, in assay [1], the “Percent positive staining, CD8 naïve T cells” value is given as 52%; the “Percent positive staining, CD19+ B cells” value is recorded as 78%; the “Percent positive staining, Eosinophils” value was determined as 92%; the “Percent positive staining, Monocytes” value was 7%. Besides, in assay [1], the “Percent positive staining, NK cells CD16+ 56+” value is reported as 45% and the “Percent positive staining, Neutrophils” value is given as 0.35%. Also, the “Binding to α4β7+ and αEβ7+ CD4 memory T cells” value in the assay on αEβ7 integrin was “bound to α4β7^+, but not αEβ7^+ cells”.
